Drawing on patent publication US11180494B2, “Substituted amino acids as integrin inhibitors” (Pliant Therapeutics, Inc., priority 2018, dated 2021), this text covers IC50 for 29 molecules.

The first assay deals with human integrin αvβ6 (Homo sapiens (Human), UniProt P06756+P18564). Kind of assay: Proximity-based integrin receptor binding assay (ALPHASCREEN) for inhibitor potency. The conditions noted are these: inhibition of binding of TGF-b1 LAP to human integrin αvβ6; values given in ranges. The procedure, abridged: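 AlphaScreen: integrin, compound, TGF-b1 LAP, biotinylated anti-LAP antibody and acceptor beads incubated 2 hours, then streptavidin donor beads 30 minutes, at room temperature in 50 mM Tris-HCl pH 7.5, 0.1% BSA, 1 mM CaCl2 and MgCl2. Excitation 680 nm, emission 520-620 nm; IC50 by four-parameter logistic fit.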
Chain of human integrin αvβ6 (P06756 31-992): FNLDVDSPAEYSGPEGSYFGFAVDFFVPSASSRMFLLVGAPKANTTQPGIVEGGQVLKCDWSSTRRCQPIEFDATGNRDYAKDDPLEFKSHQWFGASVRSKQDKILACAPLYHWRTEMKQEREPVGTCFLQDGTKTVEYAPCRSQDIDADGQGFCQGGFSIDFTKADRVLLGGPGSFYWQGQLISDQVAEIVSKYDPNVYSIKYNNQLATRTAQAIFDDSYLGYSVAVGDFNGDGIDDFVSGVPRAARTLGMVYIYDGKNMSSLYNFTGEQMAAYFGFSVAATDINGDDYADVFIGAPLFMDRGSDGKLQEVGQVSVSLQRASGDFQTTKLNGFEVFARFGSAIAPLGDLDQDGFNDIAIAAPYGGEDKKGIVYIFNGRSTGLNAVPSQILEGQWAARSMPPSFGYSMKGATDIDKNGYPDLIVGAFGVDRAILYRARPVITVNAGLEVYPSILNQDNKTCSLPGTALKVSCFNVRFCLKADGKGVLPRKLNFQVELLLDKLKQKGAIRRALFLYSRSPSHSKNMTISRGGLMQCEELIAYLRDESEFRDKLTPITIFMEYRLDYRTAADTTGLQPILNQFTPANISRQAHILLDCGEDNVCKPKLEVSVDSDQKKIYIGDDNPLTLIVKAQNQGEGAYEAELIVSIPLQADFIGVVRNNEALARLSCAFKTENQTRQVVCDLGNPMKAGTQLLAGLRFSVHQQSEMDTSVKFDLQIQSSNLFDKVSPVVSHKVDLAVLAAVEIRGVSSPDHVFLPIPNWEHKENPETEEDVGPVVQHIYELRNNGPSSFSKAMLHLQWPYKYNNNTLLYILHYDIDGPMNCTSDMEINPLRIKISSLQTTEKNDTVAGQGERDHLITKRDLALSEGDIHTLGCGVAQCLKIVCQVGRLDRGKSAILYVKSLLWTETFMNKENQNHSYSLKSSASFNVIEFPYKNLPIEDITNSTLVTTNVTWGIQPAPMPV
Chain of human integrin αvβ6 (P18564 22-707): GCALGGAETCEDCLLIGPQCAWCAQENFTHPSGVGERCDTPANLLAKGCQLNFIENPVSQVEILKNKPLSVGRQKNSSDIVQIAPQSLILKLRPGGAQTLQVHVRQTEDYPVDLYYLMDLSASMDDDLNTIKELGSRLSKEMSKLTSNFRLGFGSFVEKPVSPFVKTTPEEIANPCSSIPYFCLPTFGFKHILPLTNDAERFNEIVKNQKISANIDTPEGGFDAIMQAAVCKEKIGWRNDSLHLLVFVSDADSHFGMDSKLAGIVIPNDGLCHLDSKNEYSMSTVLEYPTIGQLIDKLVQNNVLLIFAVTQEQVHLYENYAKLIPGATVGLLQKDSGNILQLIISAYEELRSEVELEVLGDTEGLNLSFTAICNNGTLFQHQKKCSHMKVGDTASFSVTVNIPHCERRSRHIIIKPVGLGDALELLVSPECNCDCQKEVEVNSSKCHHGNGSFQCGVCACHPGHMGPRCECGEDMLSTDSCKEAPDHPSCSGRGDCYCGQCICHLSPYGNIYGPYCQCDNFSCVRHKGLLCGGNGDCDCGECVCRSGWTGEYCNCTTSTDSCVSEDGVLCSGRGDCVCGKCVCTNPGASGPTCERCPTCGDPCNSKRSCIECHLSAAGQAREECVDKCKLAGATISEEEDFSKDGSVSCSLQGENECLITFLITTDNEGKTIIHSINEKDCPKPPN
On the technique in general: In Alpha technology, singlet oxygen from a donor bead excites a nearby acceptor bead.
With `CC(C)(C)OC(=O)NC(CCO[C@H]1C[C@H](CCc2ccc3c(n2)NCCC3)C1)C(=O)O` (stereo partly drawn) [Compound 86, N-(tert-butoxycarbonyl)-O-(trans-3-(2-(5,6,7,8-tetrahydro-1,8-naphthyridin-2-yl)ethyl)cyclobutyl)homoserine], the IC50 was in the range of 0.25 to 1 µM.
On the same count and under the same terms, to `CC(C)(C(=O)NC(CCO[C@H]1C[C@H](CCc2ccc3c(n2)NCCC3)C1)C(=O)O)c1ccc(F)cc1` (stereo partly drawn) [Compound 87, N-(2-(4-fluorophenyl)-2-methylpropanoyl)-O-(trans-3-(2-(5,6,7,8-tetrahydro-1,8-naphthyridin-2-yl)ethyl)cyclobutyl)homoserine] belongs 0.25 to 1 µM; to `CC1(C(=O)NC(CCO[C@H]2C[C@H](CCc3ccc4c(n3)NCCC4)C2)C(=O)O)COC1` (stereo partly drawn) [Compound 88, N-(3-methyloxetane-3-carbonyl)-O-(trans-3-(2-(5,6,7,8-tetrahydro-1,8-naphthyridin-2-yl)ethyl)cyclobutyl)homoserine], 0.05 to 0.25 µM; to `CC(C)(CO)C(=O)NC(CCO[C@H]1C[C@H](CCc2ccc3c(n2)NCCC3)C1)C(=O)O` (stereo partly drawn) [Compound 89, N-(3-hydroxy-2,2-dimethylpropanoyl)-O-(trans-3-(2-(5,6,7,8-tetrahydro-1,8-naphthyridin-2-yl)ethyl)cyclobutyl)homoserine], 0.25 to 1 µM.
`COCC(C)(C)C(=O)NC(CCO[C@H]1C[C@H](CCc2ccc3c(n2)NCCC3)C1)C(=O)O` (stereo partly drawn) [Compound 90, N-(3-methoxy-2,2-dimethylpropanoyl)-O-(trans-3-(2-(5,6,7,8-tetrahydro-1,8-naphthyridin-2-yl)ethyl)cyclobutyl)homoserine]: the half-inhibitory concentration (IC50) was in the range of 0.25 to 1 µM.
For `CC(C)(C(=O)NC(CCO[C@H]1C[C@H](CCc2ccc3c(n2)NCCC3)C1)C(=O)O)c1cccnc1` (stereo partly drawn) [Compound 91, N-(2-methyl-2-(pyridin-3-yl)propanoyl)-O-(trans-3-(2-(5,6,7,8-tetrahydro-1,8-naphthyridin-2-yl)ethyl)cyclobutyl)homoserine], the IC50 is 0.05 to 0.25 µM.
The same measure, in the same setting: to `O=C(NC(CCO[C@H]1C[C@H](CCc2ccc3c(n2)NCCC3)C1)C(=O)O)C1Cc2ccccc2C1` (stereo partly drawn) [Compound 92, N-(2,3-dihydro-1H-indene-2-carbonyl)-O-(trans-3-(2-(5,6,7,8-tetrahydro-1,8-naphthyridin-2-yl)ethyl)cyclobutyl)homoserine] belongs 0.25 to 1 µM; to `CC(C)(CC#N)C(=O)NC(CCO[C@H]1C[C@H](CCc2ccc3c(n2)NCCC3)C1)C(=O)O` (stereo partly drawn) [Compound 93, N-(3-cyano-2,2-dimethylpropanoyl)-O-(trans-3-(2-(5,6,7,8-tetrahydro-1,8-naphthyridin-2-yl)ethyl)cyclobutyl)homoserine], 0.05 to 0.25 µM.
On the same count and under the same terms, to `CC(C)(C)C(=O)NC(CCO[C@H]1C[C@H](CCc2ccc3c(n2)NCCC3)C1)C(=O)O` (stereo partly drawn) [Compound 94, N-pivaloyl-O-(trans-3-(2-(5,6,7,8-tetrahydro-1,8-naphthyridin-2-yl)ethyl)cyclobutyl)homoserine] belongs 0.05 to 0.25 µM.
On the same count and under the same terms, as for `O=C(O)C(CCO[C@H]1C[C@H](CCc2ccc3c(n2)NCCC3)C1)NC(=O)C1(c2ccccc2)CC1` (stereo partly drawn) [Compound 97, N-(1-phenylcyclopropane-1-carbonyl)-O-(trans-3-(2-(5,6,7,8-tetrahydro-1,8-naphthyridin-2-yl)ethyl)cyclobutyl)homoserine], the figure is less than 0.05 µM; as for `CC(C)(Cc1ccccc1)C(=O)NC(CCO[C@H]1C[C@H](CCc2ccc3c(n2)NCCC3)C1)C(=O)O` (stereo partly drawn) [Compound 100, N-(2,2-dimethyl-3-phenylpropanoyl)-O-(trans-3-(2-(5,6,7,8-tetrahydro-1,8-naphthyridin-2-yl)ethyl)cyclobutyl)homoserine], 0.05 to 0.25 µM; as for `CC(C)(C)OC(=O)NC(CCO[C@H]1C[C@H](CCc2ccc3c(n2)NCCC3)C1)C(=O)O` (stereo partly drawn) [Compound 101, N-(tert-butoxycarbonyl)-O-(trans-3-(2-(5,6,7,8-tetrahydro-1,8-naphthyridin-2-yl)ethyl)cyclobutyl)homoserine], less than 0.05 µM.
In the case of `CC(C)(C(=O)NC(CCO[C@H]1C[C@H](CCc2ccc3c(n2)NCCC3)C1)C(=O)O)c1ccc(F)cc1` (stereo partly drawn) [Compound 102, N-(2-(4-fluorophenyl)-2-methylpropanoyl)-O-(trans-3-(2-(5,6,7,8-tetrahydro-1,8-naphthyridin-2-yl)ethyl)cyclobutyl)homoserine], the IC50 is less than 0.05 µM.
On the same count and under the same terms, to `CC1(C(=O)NC(CCO[C@H]2C[C@H](CCc3ccc4c(n3)NCCC4)C2)C(=O)O)COC1` (stereo partly drawn) [Compound 103, N-(3-methyloxetane-3-carbonyl)-O-(trans-3-(2-(5,6,7,8-tetrahydro-1,8-naphthyridin-2-yl)ethyl)cyclobutyl)homoserine] belongs less than 0.05 µM; to `CC(C)(CO)C(=O)NC(CCO[C@H]1C[C@H](CCc2ccc3c(n2)NCCC3)C1)C(=O)O` (stereo partly drawn) [Compound 104, N-(3-hydroxy-2,2-dimethylpropanoyl)-O-(trans-3-(2-(5,6,7,8-tetrahydro-1,8-naphthyridin-2-yl)ethyl)cyclobutyl)homoserine], less than 0.05 µM.
Still for that read-out and setting: to `COCC(C)(C)C(=O)NC(CCO[C@H]1C[C@H](CCc2ccc3c(n2)NCCC3)C1)C(=O)O` (stereo partly drawn) [Compound 105, N-(3-methoxy-2,2-dimethylpropanoyl)-O-(trans-3-(2-(5,6,7,8-tetrahydro-1,8-naphthyridin-2-yl)ethyl)cyclobutyl)homoserine] belongs less than 0.05 µM.
As for `CC(C)(C(=O)NC(CCO[C@H]1C[C@H](CCc2ccc3c(n2)NCCC3)C1)C(=O)O)c1cccnc1` (stereo partly drawn) [Compound 106, N-(2-methyl-2-(pyridin-3-yl)propanoyl)-O-(trans-3-(2-(5,6,7,8-tetrahydro-1,8-naphthyridin-2-yl)ethyl)cyclobutyl)homoserine], the IC50 was less than 0.05 µM.
The same measure, in the same setting: to `O=C(NC(CCO[C@H]1C[C@H](CCc2ccc3c(n2)NCCC3)C1)C(=O)O)C1Cc2ccccc2C1` (stereo partly drawn) [Compound 107, N-(2,3-dihydro-1H-indene-2-carbonyl)-O-(trans-3-(2-(5,6,7,8-tetrahydro-1,8-naphthyridin-2-yl)ethyl)cyclobutyl)homoserine] belongs less than 0.05 µM; to `CC(C)(CC#N)C(=O)NC(CCO[C@H]1C[C@H](CCc2ccc3c(n2)NCCC3)C1)C(=O)O` (stereo partly drawn) [Compound 108, N-(3-cyano-2,2-dimethylpropanoyl)-O-(trans-3-(2-(5,6,7,8-tetrahydro-1,8-naphthyridin-2-yl)ethyl)cyclobutyl)homoserine], less than 0.05 µM; to `CC(C)(C)C(=O)NC(CCO[C@H]1C[C@H](CCc2ccc3c(n2)NCCC3)C1)C(=O)O` (stereo partly drawn) [Compound 109, N-pivaloyl-O-(trans-3-(2-(5,6,7,8-tetrahydro-1,8-naphthyridin-2-yl)ethyl)cyclobutyl)homoserine], less than 0.05 µM.
The same measure, in the same setting: to `CC(C)(C)COC(=O)N[C@@H](CCO[C@H]1C[C@H](CCc2ccc3c(n2)NCCC3)C1)C(=O)O` [Compound 112, N-((neopentyloxy)carbonyl)-O-(trans-3-(2-(5,6,7,8-tetrahydro-1,8-naphthyridin-2-yl)ethyl)cyclobutyl)homoserine] belongs 0.05 to 0.25 µM; to `CC1(OC(=O)N[C@@H](CCO[C@H]2C[C@H](CCc3ccc4c(n3)NCCC4)C2)C(=O)O)CC1` [Compound 113, N-((1-methylcyclopropoxy)carbonyl)-O-(trans-3-(2-(5,6,7,8-tetrahydro-1,8-naphthyridin-2-yl)ethyl)cyclobutyl)homoserine], less than 0.05 µM; to `CC1(OC(=O)N[C@@H](CCO[C@H]2C[C@H](CCc3ccc4c(n3)NCCC4)C2)C(=O)O)CCC1` [Compound 114, N-((1-methylcyclobutoxy)carbonyl)-O-(trans-3-(2-(5,6,7,8-tetrahydro-1,8-naphthyridin-2-yl)ethyl)cyclobutyl)homoserine], less than 0.05 µM.
On the same count and under the same terms, to `CC(C)(OC(=O)N[C@@H](CCO[C@H]1C[C@H](CCc2ccc3c(n2)NCCC3)C1)C(=O)O)C(F)(F)F` [Compound 115, O-(trans-3-(2-(5,6,7,8-tetrahydro-1,8-naphthyridin-2-yl)ethyl)cyclobutyl)-N-(((1,1,1-trifluoro-2-methylpropan-2-yl)oxy)carbonyl)homoserine] belongs less than 0.05 µM; to `CC(C)OC(=O)N[C@@H](CCO[C@H]1C[C@H](CCc2ccc3c(n2)NCCC3)C1)C(=O)O` [Compound 116, N-(isopropoxycarbonyl)-O-(trans-3-(2-(5,6,7,8-tetrahydro-1,8-naphthyridin-2-yl)ethyl)cyclobutyl)homoserine], less than 0.05 µM; to `CCN(CC)C(=O)N[C@@H](CCO[C@H]1C[C@H](CCc2ccc3c(n2)NCCC3)C1)C(=O)O` [Compound 117, N-(diethylcarbamoyl)-O-(trans-3-(2-(5,6,7,8-tetrahydro-1,8-naphthyridin-2-yl)ethyl)cyclobutyl)homoserine], less than 0.05 µM.
As to `CC(C)(C)NC(=O)N[C@@H](CCO[C@H]1C[C@H](CCc2ccc3c(n2)NCCC3)C1)C(=O)O` [Compound 118, N-(tert-butylcarbamoyl)-O-(trans-3-(2-(5,6,7,8-tetrahydro-1,8-naphthyridin-2-yl)ethyl)cyclobutyl)homoserine], the IC50 was less than 0.05 µM.
For `CN(C(=O)N[C@@H](CCO[C@H]1C[C@H](CCc2ccc3c(n2)NCCC3)C1)C(=O)O)C(C)(C)C` [Compound 119, N-(tert-butyl(methyl)carbamoyl)-O-(trans-3-(2-(5,6,7,8-tetrahydro-1,8-naphthyridin-2-yl)ethyl)cyclobutyl)homoserine], the IC50 lay in the range of 0.05 to 0.25 µM.

Staying with this assay, now noted: inhibition of binding of TGF-b1 LAP to human integrin αvβ6; values given in ranges; listed as 98**.
As for `CC(C)(C(=O)NC(CCO[C@H]1C[C@H](CCc2ccc3c(n2)NCCC3)C1)C(=O)O)c1ccccc1` (stereo partly drawn) [Compound 98, N-(2-methyl-2-phenylpropanoyl)-O-(trans-3-(2-(5,6,7,8-tetrahydro-1,8-naphthyridin-2-yl)ethyl)cyclobutyl)homoserine], the IC50 was less than 0.05 µM.

In general, IC50 refers to the concentration at which inhibition is half-maximal.
